{
  "source": "PubChem BioAssay AID2060896",
  "about": "(Molecular Pharmacology Branch, DTP, NCI, 2025);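 also: spheroids exposed to compounds for 7 days before readout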;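 as to viability, T/C: 100% = DMSO vehicle control viability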",
  "tested_on": "941728-121-R-J1-PDC complex spheroid viability",
  "assay": "Anticancer human tumor 941728-121-R-J1-PDC patient-derived lung adenocarcinoma cell line growth inhibition [RAS]",
  "details": "for IC50: curve of first compound; for viability, T/C: stronger effect = lower value",
  "summary_of_the_method": "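Tumour cells grown as complex spheroids with HUVEC endothelial cells and mesenchymal stem cells, treated with RAS pathway inhibitor combinations. Each agent spans half-log steps from near clinical Cmax, or 10 microM where Cmax is unknown.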",
  "key": {"[1]": {"details": "second compound 0.00316 µM, first compound 0.0316 µM"}, "[2]": {"details": "second compound 0.00316 µM, first compound 0.1 µM"}, "[3]": {"details": "second compound 0.00316 µM, first compound 0.316 µM"}, "[4]": {"details": "second compound 0.00316 µM, first compound 1 µM"}, "[5]": {"details": "second compound 0.00316 µM, first compound 3.16 µM"}, "[6]": {"details": "second compound 0.00316 µM, first compound 10 µM"}, "[7]": {"details": "second compound 0.01 µM, first compound 0.0316 µM"}, "[8]": {"details": "second compound 0.01 µM, first compound 0.1 µM"}, "[9]": {"details": "second compound 0.01 µM, first compound 0.316 µM"}, "[10]": {"details": "second compound 0.01 µM, first compound 1 µM"}, "[11]": {"details": "second compound 0.01 µM, first compound 3.16 µM"}, "[12]": {"details": "second compound 0.01 µM, first compound 10 µM"}, "[13]": {"details": "second compound 0.0316 µM, first compound 0.0316 µM"}, "[14]": {"details": "second compound 0.0316 µM, first compound 0.1 µM"}, "[15]": {"details": "second compound 0.0316 µM, first compound 0.316 µM"}, "[16]": {"details": "second compound 0.0316 µM, first compound 1 µM"}, "[17]": {"details": "second compound 0.0316 µM, first compound 3.16 µM"}, "[18]": {"details": "second compound 0.0316 µM, first compound 10 µM"}, "[19]": {"details": "second compound 0.1 µM, first compound 0.0316 µM"}, "[20]": {"details": "second compound 0.1 µM, first compound 0.1 µM"}, "[21]": {"details": "second compound 0.1 µM, first compound 0.316 µM"}, "[22]": {"details": "second compound 0.1 µM, first compound 1 µM"}, "[23]": {"details": "second compound 0.1 µM, first compound 3.16 µM"}, "[24]": {"details": "second compound 0.1 µM, first compound 10 µM"}, "[25]": {"details": "second compound 0.316 µM, first compound 0.0316 µM"}, "[26]": {"details": "second compound 0.316 µM, first compound 0.1 µM"}, "[27]": {"details": "second compound 0.316 µM, first compound 0.316 µM"}, "[28]": {"details": "second compound 0.316 µM, first compound 1 µM"}, "[29]": {"details": "second compound 0.316 µM, first compound 3.16 µM"}, "[30]": {"details": "second compound 0.316 µM, first compound 10 µM"}, "[31]": {"details": "second compound 1 µM, first compound 0.0316 µM"}, "[32]": {"details": "second compound 1 µM, first compound 0.1 µM"}, "[33]": {"details": "second compound 1 µM, first compound 0.316 µM"}, "[34]": {"details": "second compound 1 µM, first compound 1 µM"}, "[35]": {"details": "second compound 1 µM, first compound 3.16 µM"}, "[36]": {"details": "second compound 1 µM, first compound 10 µM"}},
  "data": [
    {"smiles": "CC1(O)CCCC1n1c(=O)c(C(F)F)cc2cnc(NC3CCN(S(C)(=O)=O)CC3)nc21", "note": "(centres undefined) + C=CC(=O)N1CCN(c2nc(OCC3CCCN3C)nc3c(F)c(-c4nc(N)cc(C)c4C(F)(F)F)c(Cl)cc23)C(C)C1", "values": [
      {"measurement": "IC50", "setting": "second compound 0.00316 µM", "result": "< 31.6", "unit": "nM"},
      {"measurement": "IC50", "setting": "second compound 0.01 µM", "result": "< 31.6", "unit": "nM"},
      {"measurement": "IC50", "setting": "second compound 0.0316 µM", "result": "< 31.6", "unit": "nM"},
      {"measurement": "IC50", "setting": "second compound 0.1 µM", "result": "< 31.6", "unit": "nM"},
      {"measurement": "IC50", "setting": "second compound 0.316 µM", "result": "< 31.6", "unit": "nM"},
      {"measurement": "IC50", "setting": "second compound 1 µM", "result": "< 31.6", "unit": "nM"},
      {"measurement": "viability, T/C", "setting": "[1]", "result": 21.1, "unit": "%"},
      {"measurement": "viability, T/C", "setting": "[2]", "result": 22.3, "unit": "%"},
      {"measurement": "viability, T/C", "setting": "[3]", "result": 21.8, "unit": "%"},
      {"measurement": "viability, T/C", "setting": "[4]", "result": 24.1, "unit": "%"},
      {"measurement": "viability, T/C", "setting": "[5]", "result": 21.9, "unit": "%"},
      {"measurement": "viability, T/C", "setting": "[6]", "result": 23.6, "unit": "%"},
      {"measurement": "viability, T/C", "setting": "[7]", "result": 18.8, "unit": "%"},
      {"measurement": "viability, T/C", "setting": "[8]", "result": 25.2, "unit": "%"},
      {"measurement": "viability, T/C", "setting": "[9]", "result": 19.6, "unit": "%"},
      {"measurement": "viability, T/C", "setting": "[10]", "result": 21.8, "unit": "%"},
      {"measurement": "viability, T/C", "setting": "[11]", "result": 23, "unit": "%"},
      {"measurement": "viability, T/C", "setting": "[12]", "result": 26.5, "unit": "%"},
      {"measurement": "viability, T/C", "setting": "[13]", "result": 18, "unit": "%"},
      {"measurement": "viability, T/C", "setting": "[14]", "result": 17.9, "unit": "%"},
      {"measurement": "viability, T/C", "setting": "[15]", "result": 21.4, "unit": "%"},
      {"measurement": "viability, T/C", "setting": "[16]", "result": 19.1, "unit": "%"},
      {"measurement": "viability, T/C", "setting": "[17]", "result": 20.3, "unit": "%"},
      {"measurement": "viability, T/C", "setting": "[18]", "result": 23.1, "unit": "%"},
      {"measurement": "viability, T/C", "setting": "[19]", "result": 20.1, "unit": "%"},
      {"measurement": "viability, T/C", "setting": "[20]", "result": 18.7, "unit": "%"},
      {"measurement": "viability, T/C", "setting": "[21]", "result": 20.1, "unit": "%"},
      {"measurement": "viability, T/C", "setting": "[22]", "result": 22.8, "unit": "%"},
      {"measurement": "viability, T/C", "setting": "[23]", "result": 21.8, "unit": "%"},
      {"measurement": "viability, T/C", "setting": "[24]", "result": 24.6, "unit": "%"},
      {"measurement": "viability, T/C", "setting": "[25]", "result": 21.1, "unit": "%"},
      {"measurement": "viability, T/C", "setting": "[26]", "result": 19.9, "unit": "%"},
      {"measurement": "viability, T/C", "setting": "[27]", "result": 21.4, "unit": "%"},
      {"measurement": "viability, T/C", "setting": "[28]", "result": 22.1, "unit": "%"},
      {"measurement": "viability, T/C", "setting": "[29]", "result": 21.6, "unit": "%"},
      {"measurement": "viability, T/C", "setting": "[30]", "result": 28.1, "unit": "%"},
      {"measurement": "viability, T/C", "setting": "[31]", "result": 21.1, "unit": "%"},
      {"measurement": "viability, T/C", "setting": "[32]", "result": 19.7, "unit": "%"},
      {"measurement": "viability, T/C", "setting": "[33]", "result": 26.4, "unit": "%"},
      {"measurement": "viability, T/C", "setting": "[34]", "result": 21.9, "unit": "%"},
      {"measurement": "viability, T/C", "setting": "[35]", "result": 24.1, "unit": "%"},
      {"measurement": "viability, T/C", "setting": "[36]", "result": 33.4, "unit": "%"}
    ]},
    {"smiles": "CCC(CC)c1cc(NC2CCC(N)C2)n2nccc2n1", "note": "(centres undefined) + C=CC(=O)N1CCN(c2nc(OCC3CCCN3C)nc3c(F)c(-c4nc(N)cc(C)c4C(F)(F)F)c(Cl)cc23)C(C)C1", "values": [
      {"measurement": "IC50", "setting": "second compound 0.00316 µM", "result": "< 31.6", "unit": "nM"},
      {"measurement": "IC50", "setting": "second compound 0.01 µM", "result": "< 31.6", "unit": "nM"},
      {"measurement": "IC50", "setting": "second compound 0.0316 µM", "result": "< 31.6", "unit": "nM"},
      {"measurement": "IC50", "setting": "second compound 0.1 µM", "result": "< 31.6", "unit": "nM"},
      {"measurement": "IC50", "setting": "second compound 0.316 µM", "result": "< 31.6", "unit": "nM"},
      {"measurement": "IC50", "setting": "second compound 1 µM", "result": "< 31.6", "unit": "nM"},
      {"measurement": "viability, T/C", "setting": "[1]", "result": 19.6, "unit": "%"},
      {"measurement": "viability, T/C", "setting": "[2]", "result": 18.1, "unit": "%"},
      {"measurement": "viability, T/C", "setting": "[3]", "result": 20.3, "unit": "%"},
      {"measurement": "viability, T/C", "setting": "[4]", "result": 27.2, "unit": "%"},
      {"measurement": "viability, T/C", "setting": "[5]", "result": 13.7, "unit": "%"},
      {"measurement": "viability, T/C", "setting": "[6]", "result": 29.1, "unit": "%"},
      {"measurement": "viability, T/C", "setting": "[7]", "result": 20.1, "unit": "%"},
      {"measurement": "viability, T/C", "setting": "[8]", "result": 19.9, "unit": "%"},
      {"measurement": "viability, T/C", "setting": "[9]", "result": 21.8, "unit": "%"},
      {"measurement": "viability, T/C", "setting": "[10]", "result": 28.4, "unit": "%"},
      {"measurement": "viability, T/C", "setting": "[11]", "result": 13.3, "unit": "%"},
      {"measurement": "viability, T/C", "setting": "[12]", "result": 25, "unit": "%"},
      {"measurement": "viability, T/C", "setting": "[13]", "result": 20, "unit": "%"},
      {"measurement": "viability, T/C", "setting": "[14]", "result": 24.5, "unit": "%"},
      {"measurement": "viability, T/C", "setting": "[15]", "result": 23.5, "unit": "%"},
      {"measurement": "viability, T/C", "setting": "[16]", "result": 27.3, "unit": "%"},
      {"measurement": "viability, T/C", "setting": "[17]", "result": 13.7, "unit": "%"},
      {"measurement": "viability, T/C", "setting": "[18]", "result": 25.9, "unit": "%"},
      {"measurement": "viability, T/C", "setting": "[19]", "result": 19.7, "unit": "%"},
      {"measurement": "viability, T/C", "setting": "[20]", "result": 18.3, "unit": "%"},
      {"measurement": "viability, T/C", "setting": "[21]", "result": 23.4, "unit": "%"},
      {"measurement": "viability, T/C", "setting": "[22]", "result": 27.3, "unit": "%"},
      {"measurement": "viability, T/C", "setting": "[23]", "result": 16.6, "unit": "%"},
      {"measurement": "viability, T/C", "setting": "[24]", "result": 25.9, "unit": "%"},
      {"measurement": "viability, T/C", "setting": "[25]", "result": 19.1, "unit": "%"},
      {"measurement": "viability, T/C", "setting": "[26]", "result": 21.6, "unit": "%"},
      {"measurement": "viability, T/C", "setting": "[27]", "result": 21.5, "unit": "%"},
      {"measurement": "viability, T/C", "setting": "[28]", "result": 26, "unit": "%"},
      {"measurement": "viability, T/C", "setting": "[29]", "result": 14.9, "unit": "%"},
      {"measurement": "viability, T/C", "setting": "[30]", "result": 26.1, "unit": "%"},
      {"measurement": "viability, T/C", "setting": "[31]", "result": 20.6, "unit": "%"},
      {"measurement": "viability, T/C", "setting": "[32]", "result": 21.2, "unit": "%"},
      {"measurement": "viability, T/C", "setting": "[33]", "result": 22.6, "unit": "%"},
      {"measurement": "viability, T/C", "setting": "[34]", "result": 30.2, "unit": "%"},
      {"measurement": "viability, T/C", "setting": "[35]", "result": 16.8, "unit": "%"},
      {"measurement": "viability, T/C", "setting": "[36]", "result": 32.5, "unit": "%"}
    ]}
  ]
}
